{"source": "patent US12410171B2", "about": "“Tropomyosin receptor kinase (TRK) degradation compounds and methods of use” (Cullgen (Shanghai), Inc., priority 2020, dated 2025)"}
{"molecular_target": "T1, TPM3-TRKA fusion protein (Homo sapiens, UniProt P04629)", "T1 construct": "The resulted chimeric proteins always retain the kinase domain of TRK proteins; TPM3 (fusion partner, N-terminal part of tropomyosin alpha-3, P06753); endogenous in cells; host or cells: KM12 colon cancer cells; the other entry of the earlier key: TPM3 (P06753, Tropomyosin alpha-3 chain)", "T1 sequence (P04629 with tags, fused parts or gaps)": "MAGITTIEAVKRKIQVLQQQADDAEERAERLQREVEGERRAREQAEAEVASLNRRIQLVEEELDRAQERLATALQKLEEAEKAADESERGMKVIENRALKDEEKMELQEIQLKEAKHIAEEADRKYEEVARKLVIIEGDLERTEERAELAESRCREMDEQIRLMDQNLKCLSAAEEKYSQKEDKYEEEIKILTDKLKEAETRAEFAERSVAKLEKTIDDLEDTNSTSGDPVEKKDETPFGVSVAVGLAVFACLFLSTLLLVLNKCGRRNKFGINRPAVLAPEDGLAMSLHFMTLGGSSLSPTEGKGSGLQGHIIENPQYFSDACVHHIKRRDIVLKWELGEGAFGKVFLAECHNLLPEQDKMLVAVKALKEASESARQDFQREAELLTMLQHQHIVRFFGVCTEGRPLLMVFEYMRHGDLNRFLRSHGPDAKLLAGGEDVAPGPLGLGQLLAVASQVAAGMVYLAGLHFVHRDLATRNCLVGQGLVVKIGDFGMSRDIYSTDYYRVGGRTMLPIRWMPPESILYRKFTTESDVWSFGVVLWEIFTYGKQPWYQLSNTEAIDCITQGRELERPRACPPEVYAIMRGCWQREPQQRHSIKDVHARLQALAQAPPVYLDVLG", "test": "TPM3-TRKA fusion protein levels in KM12 cells (Western blot)", "type": "cell-based", "settings": "16 h; TPM3-TRKA degradation in KM12 cells at 10 nM compound, category of percentage degradation; read-out: Degradation (at 10 nM)", "method_in_brief": "(§1)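 KM12 colon cancer cells were treated with DMSO or compounds at 0.1–100 nM, 0.4–30 nM or other stated concentrations for 4, 8–16 or 16 h. RIPA lysates were BCA-normalized and resolved by SDS-PAGE. TPM3-TRKA was detected by chemiluminescent Western blot, with bands quantified by densitometry.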", "units": {"percent degradation of TPM3-TRKA protein at 0.01 µM": "%"}}
{"smiles": "O=C(CN1CCN(c2ccc(C(=O)Nc3n[nH]c4ccc(Cc5cc(F)cc(F)c5)cc34)c(NC3CCOCC3)c2)CC1)NCCOCCOCCOCCOCCNc1ccc2c(c1)C(=O)N(C1CCC(=O)NC1=O)C2=O", "note": "(stereo not shown) [TR-160, N-(5-(3,5-Difluorobenzyl)-1H-indazol-3-yl)-4-(4-(17-((2-(2,6-dioxopiperidin-3-yl)-1,3-dioxoisoindolin-S-yl)amino)-2-oxo-6,9,12,15-tetraoxa-3-azaheptadecyl)piperazin-1-yl)-2-((tetrahydro-2H-pyran-4-yl)amino)benzamide]", "percent degradation of TPM3-TRKA protein at 0.01 µM": "> 80"}
{"smiles": "O=C(CN1CCN(c2ccc(C(=O)Nc3n[nH]c4ccc(Cc5cc(F)cc(F)c5)cc34)c(NC3CCOCC3)c2)CC1)NCCOCCNc1ccc2c(c1)C(=O)N(C1CCC(=O)NC1=O)C2=O", "note": "(stereo not shown) [TR-161, N-(5-(3,5-Difluorobenzyl)-1H-indazol-3-yl)-4-(4-(2-((2-(2-((2-(2,6-dioxopiperidin-3-yl)-1,3-dioxoisoindolin-5-yl)amino)ethoxy)ethyl)amino)-2-oxoethyl)piperazin-1-yl)-2-((tetrahydro-2H-pyran-4-yl)amino)benzamide]", "percent degradation of TPM3-TRKA protein at 0.01 µM": "> 80"}
{"smiles": "O=C(CN1CCN(c2ccc(C(=O)Nc3n[nH]c4ccc(Cc5cc(F)cc(F)c5)cc34)c(NC3CCOCC3)c2)CC1)NCCOCCOCCNc1ccc2c(c1)C(=O)N(C1CCC(=O)NC1=O)C2=O", "note": "(stereo not shown) [TR-162, N-(5-(3,5-Difluorobenzyl)-1H-indazol-3-yl)-4-(4-(2-((2-(2-(2-((2-(2,6-dioxopiperidin-3-yl)-1,3-dioxoisoindolin-5-yl)amino)ethoxy)ethoxy)ethyl)amino)-2-oxocthyl)piperazin-1-yl)-2-((tetrahydro-2H-pyran-4-yl)amino)benzamide]", "percent degradation of TPM3-TRKA protein at 0.01 µM": "> 80"}
{"smiles": "O=C(CN1CCN(c2ccc(C(=O)Nc3n[nH]c4ccc(Cc5cc(F)cc(F)c5)cc34)c(NC3CCOCC3)c2)CC1)NCCOCCOCCOCCNc1ccc2c(c1)C(=O)N(C1CCC(=O)NC1=O)C2=O", "note": "(stereo not drawn) [TR-163, N—(S-(3,5-Difluorobenzyl)-1H-indazol-3-yl)-4-(4-(14-((2-(2,6-dioxopiperidin-3-yl)-1,3-dioxoisoindolin-5-yl)amino)-2-oxo-6,9,12-trioxa-3-azatetradecyl)piperazin-1-yl)-2˜ ((tetrahydro-2H-pyran-4-yl)amino)benzamide]", "percent degradation of TPM3-TRKA protein at 0.01 µM": "> 80"}
{"smiles": "O=C(CN1CCN(c2ccc(C(=O)Nc3n[nH]c4ccc(Cc5cc(F)cc(F)c5)cc34)c(NC3CCOCC3)c2)CC1)NCCCCCNc1ccc2c(c1)C(=O)N(C1CCC(=O)NC1=O)C2=O", "note": "(stereo not shown) [TR-164, N-(5-(3,5-Difluorobenzyl)-1H-indazol-3-yl)-4-(4-(2-((5-((2-(2,6-dioxopiperidin-3-yl)-1,3-dioxoisoindolin-5-yl)amino)pentyl)amino)-2-oxoethyl)piperazin-1-yl)-2-((tetrahydro-2H-pyran-4-yl)amino)benzamide]", "percent degradation of TPM3-TRKA protein at 0.01 µM": "> 80"}
{"smiles": "O=C(CN1CCN(c2ccc(C(=O)Nc3n[nH]c4ccc(Cc5cc(F)cc(F)c5)cc34)c(NC3CCOCC3)c2)CC1)NCCNc1ccc2c(c1)C(=O)N(C1CCC(=O)NC1=O)C2=O", "note": "(stereo not shown) [TR-165, N-(5-(3,5-Difluorobenzyl)-1H-indazol-3-yl)-4-(4-(2-((2-((2-(2,6-dioxopiperidin-3-yl)-1,3-dioxoisoindolin-5-yl)amino)ethyl)amino)-2-oxoethyl)piperazin-1-yl)-2-((tetrahydro-2H-pyran-4-yl)amino)benzamide]", "percent degradation of TPM3-TRKA protein at 0.01 µM": "> 80"}
{"smiles": "O=C(CN1CCN(c2ccc(C(=O)Nc3n[nH]c4ccc(Cc5cc(F)cc(F)c5)cc34)c(NC3CCOCC3)c2)CC1)NCCOCCOCCOCCOCCOCCNc1ccc2c(c1)C(=O)N(C1CCC(=O)NC1=O)C2=O", "note": "(stereo not shown) [TR-166, N-(5-(3,5-Difluorobenzyl)-1H-indazol-3-yl)-4-(4-(20-((2-(2,6-dioxopiperidin-3-yl)-1,3-dioxoisoindolin-5-yl)amino)-2-oxo-6,9,12,15,18-pentaoxa-3-azaicosyl)piperazin-1-yl)-2-((tetrahydro-28-pyran-4-yl)amino)benzamide]", "percent degradation of TPM3-TRKA protein at 0.01 µM": "> 80"}
{"smiles": "O=C(CN1CCN(c2ccc(C(=O)Nc3n[nH]c4ccc(Cc5cc(F)cc(F)c5)cc34)c(NC3CCOCC3)c2)CC1)NCCCNc1ccc2c(c1)C(=O)N(C1CCC(=O)NC1=O)C2=O", "note": "(stereo not shown) [TR-167, N-(5-(3,5-Difluorobenzyl)-1H-indazol-3-yl)-4-(4-(2-((3-((2-(2,6-dioxopiperidin-3-yl)-1,3-dioxoisoindolin-5-yl)amino)propyl)amino)-2-oxocthyl)piperazin-1-yl)-2-((tetrahydro-2H-pyran-4-yl)amino)benzamide]", "percent degradation of TPM3-TRKA protein at 0.01 µM": "> 80"}
{"smiles": "O=C1CCC(N2C(=O)c3ccc(NCCCC(=O)N4CCN(c5cccc(-c6cnc7ccc(N8CCC[C@@H]8c8cccc(F)c8)nn67)n5)CC4)cc3C2=O)C(=O)N1", "note": "(stereo partly drawn) [TR-168, 2-(2,6-Dioxopiperidin-3-yl)-5-((4-(4-(6-(6-((R)-2-(3-fluorophenyl)pyrrolidin-1-yl)imidazo[1,2-b]pyridazin-3-yl)pyridin-2-yl)piperazin-1-yl)-4-oxobutyl)amino) isoindoline-1,3-dione]", "percent degradation of TPM3-TRKA protein at 0.01 µM": "> 80"}
{"smiles": "O=C1CCC(N2C(=O)c3ccc(NCCCC(=O)N4CCN(c5ccc(C(=O)Nc6n[nH]c7ccc(Cc8cc(F)cc(F)c8)cc67)c(NC6CCOCC6)c5)CC4)cc3C2=O)C(=O)N1", "note": "(stereo not shown) [TR-169, N-(5-(3,5-Difluorobenzyl)-1H-indazol-3-yl)-4-(4-(4-((2-(2,6-dioxopiperidin-3-yl)-1,3-dioxoisoindolin-S-yl)amino)butanoyl)piperazin-1-yl)-2-((tetrahydro-2/-pyran-4-yl)amino)benzamide]", "percent degradation of TPM3-TRKA protein at 0.01 µM": "> 80"}
{"smiles": "O=C1CCC(N2C(=O)c3ccc(NCCCN4CCN(c5cccc(-c6cnc7ccc(N8CCC[C@@H]8c8cccc(F)c8)nn67)n5)CC4)cc3C2=O)C(=O)N1", "note": "(stereo partly drawn) [TR-171, 2˜ (2,6-Dioxopiperidin-3-yl)-5-((3-(4-(6-(6-((R)-2-(3-fluorophenyl)pyrrolidin-1-yl)imidazo[1,2-b]pyridazin-3-yl)pyridin-2-yl)piperazin-1-yl)propyl)amino) isoindoline-1,3-dione]", "percent degradation of TPM3-TRKA protein at 0.01 µM": "> 80"}
{"smiles": "O=C1CCC(N2C(=O)c3ccc(NCCOCCN4CCN(c5cccc(-c6cnc7ccc(N8CCC[C@@H]8c8cccc(F)c8)nn67)n5)CC4)cc3C2=O)C(=O)N1", "note": "(stereo partly drawn) [TR-176, 2-(2,6-Dioxopiperidin-3-yl)-5-((2-(2-(4-(6-(6-((R)-2-(3-fluorophenyl)pyrrolidin-1-yl)imidazo[1,2-b]pyridazin-3-yl)pyridin-2-yl)piperazin-1-yl)ethoxy)ethyl)amino) isoindoline-1,3-dione]", "percent degradation of TPM3-TRKA protein at 0.01 µM": "> 80"}
{"smiles": "O=C1CCC(N2C(=O)c3ccc(NCCOCCOCCN4CCN(c5cccc(-c6cnc7ccc(N8CCC[C@H]8c8cccc(F)c8)nn67)n5)CC4)cc3C2=O)C(=O)N1", "note": "(stereo partly drawn) [TR-177, 2-(2,6-Dioxopiperidin-3-yl)-5-((2-(2-(2-(4-(6-(6-((S)-2-(3-fluorophenyl)pyrrolidin-1-yl)imidazo[1,2-b]pyridazin-3-yl)pyridin-2-yl)piperazin-1-yl)ethoxy)ethoxy)ethyl)amino) isoindoline-1,3-dione]", "percent degradation of TPM3-TRKA protein at 0.01 µM": "> 80"}
{"smiles": "O=C1CCC(N2Cc3cc(CCCN4CCN(c5cccc(-c6cnc7ccc(N8CCC[C@@H]8c8cccc(F)c8)nn67)n5)CC4)ccc3C2=O)C(=O)N1", "note": "(stereo partly drawn) [TR-186, 3-(5-(3-(4-(6-(6-((R)-2-(3-fluorophenyl)pyrrolidin-1-yl)imidazo[1,2-b]pyridazin-3-yl)pyridin-2-yl)piperazin-1-yl)propyl)-1-oxoisoindolin-2-yl)piperidine-2,6-dione]", "percent degradation of TPM3-TRKA protein at 0.01 µM": "> 80"}
{"smiles": "O=C1CCC(N2Cc3cc(C#CCN4CCN(c5cccc(-c6cnc7ccc(N8CCC[C@@H]8c8cccc(F)c8)nn67)n5)CC4)ccc3C2=O)C(=O)N1", "note": "(stereo partly drawn) [TR-188, 3-(5-(3-(4-(6-(6-((R)-2-(3-Fluorophenyl)pyrrolidin-1-yl)imidazo[1,2-b]pyridazin-3-yl)pyridin-2-yl)piperazin-1-yl)prop-1-yn-1-yl)-1-oxoisoindolin-2-yl)piperidine-2,6-dione]", "percent degradation of TPM3-TRKA protein at 0.01 µM": "> 80"}
{"molecular_target": "T1, TPM3-TRKA fusion protein", "test": "TPM3-TRKA fusion protein levels in KM12 cells (Western blot)", "type": "cell-based", "settings": "KM12, 16 h, read-out: Degradation (at 10 nM)", "method_in_brief": "as §1", "units": {"percent degradation of TPM3-TRKA protein at 0.01 µM": "%"}}
{"smiles": "O=C1CCC(N2C(=O)c3ccc(CCCN4CCN(c5cccc(-c6cnc7ccc(N8CCC[C@@H]8c8cccc(F)c8)nn67)n5)CC4)cc3C2=O)C(=O)N1", "note": "(stereo partly drawn) [TR-172, 2-(2,6-dioxopiperidin-3-yl)-5-(3-(4-(6-(6-((R)-2˜ (3-fluorophenyl)pyrrolidin-1-yl)imidazo[1,2-b]pyridazin-3-yl)pyridin-2-yl)piperazin-1-yl)propyl)isoindoline-1,3-dione]", "percent degradation of TPM3-TRKA protein at 0.01 µM": "> 80"}
{"smiles": "O=C1CCC(N2C(=O)c3ccc(OCCN4CCN(c5cccc(-c6cnc7ccc(N8CCC[C@@H]8c8cccc(F)c8)nn67)n5)CC4)cc3C2=O)C(=O)N1", "note": "(stereo partly drawn) [TR-173, 2˜ (2,6-dioxopiperidin-3-yl)-5-(2-(4-(6-(6-((R)-2-(3-fluorophenyl)pyrrolidin-1-yl)imidazo[1,2-b]pyridazin-3-yl)pyridin-2-yl)piperazin-1-yl)ethoxy) isoindoline-1,3-dione]", "percent degradation of TPM3-TRKA protein at 0.01 µM": "> 80"}
{"smiles": "O=C1CCC(N2C(=O)c3ccc(N4CCC(N5CCN(c6cccc(-c7cnc8ccc(N9CCC[C@@H]9c9cccc(F)c9)nn78)n6)CC5)CC4)cc3C2=O)C(=O)N1", "note": "(stereo partly drawn) [TR-182, 2-(2,6-dioxopiperidin-3-yl)-5-(4-(4-(6-(6-((R)-2-(3-fluorophenyl)pyrrolidin-1-yl)imidazo[1,2-b]pyridazin-3-yl)pyridin-2-yl)piperazin-1-yl)piperidin-1-yl)isoindoline-1,3-dione]", "percent degradation of TPM3-TRKA protein at 0.01 µM": "> 80"}
{"smiles": "O=C1CCC(N2C(=O)c3ccc(N4CC(N5CCN(c6cccc(-c7cnc8ccc(N9CCC[C@@H]9c9cccc(F)c9)nn78)n6)CC5)C4)cc3C2=O)C(=O)N1", "note": "(stereo partly drawn) [TR-184, 2-(2,6-dioxopiperidin-3-yl)-5-(3-(4-(6-(6-((R)-2-(3-fluorophenyl)pyrrolidin-1-yl)imidazo[1,2-b]pyridazin-3-yl)pyridin-2-yl)piperazin-1-yl)azetidin-1-yl)isoindoline-1,3-dione]", "percent degradation of TPM3-TRKA protein at 0.01 µM": "> 80"}
